Assay results reported in ChEMBL document CHEMBL3045868, “Synthesis and antibacterial activities of para-alkoxy phenyl--ketoaldehyde derivatives” (Med Chem Res, 2013).
In brackets after ≈: the same amount, converted by molar mass.

What was measured:
Format in all cases: functional
[1] = system: Staphylococcus aureus; experiment: Antibacterial activity against Staphylococcus aureus clinical isolate 11 assessed as growth inhibition at pH 9 after 16 to 18 hr by NCCLS agar dilution method
[2] = system: Staphylococcus aureus; experiment: Antibacterial activity against Staphylococcus aureus clinical isolate 10 assessed as growth inhibition at pH 9 after 16 to 18 hr by NCCLS agar dilution method
[3] = system: Staphylococcus aureus; experiment: Antibacterial activity against Staphylococcus aureus clinical isolate 14 assessed as growth inhibition at pH 7 after 16 to 18 hr by NCCLS agar dilution method
[4] = system: Staphylococcus aureus; experiment: Antibacterial activity against Staphylococcus aureus clinical isolate 6 assessed as growth inhibition after 16 to 18 hr by NCCLS agar dilution method
[5] = system: Staphylococcus aureus; experiment: Bactericidal activity against methicillin-resistant Staphylococcus aureus isolate 2 after 24 hr; conditions: isolate 2, 24 h
[6] = system: Staphylococcus aureus; experiment: Antibacterial activity against Staphylococcus aureus clinical isolate 18 assessed as growth inhibition at pH 7 after 16 to 18 hr by NCCLS agar dilution method
[7] = system: Staphylococcus aureus; experiment: Antibacterial activity against Staphylococcus aureus clinical isolate 10 assessed as growth inhibition at pH 5 after 16 to 18 hr by NCCLS agar dilution method
[8] = system: Staphylococcus aureus; experiment: Antibacterial activity against Staphylococcus aureus clinical isolate 17 assessed as growth inhibition at pH 5 after 16 to 18 hr by NCCLS agar dilution method
[9] = system: Staphylococcus aureus; experiment: Antibacterial activity against Staphylococcus aureus clinical isolate 2 assessed as growth inhibition at pH 7 after 16 to 18 hr by NCCLS agar dilution method
[10] = system: Staphylococcus aureus; experiment: Antibacterial activity against Staphylococcus aureus clinical isolate 2 assessed as growth inhibition after 16 to 18 hr by NCCLS agar dilution method
[11] = system: Staphylococcus aureus; experiment: Antibacterial activity against Staphylococcus aureus clinical isolate 6 assessed as growth inhibition at pH 9 after 16 to 18 hr by NCCLS agar dilution method
[12] = system: Helicobacter pylori; experiment: Antibacterial activity against Helicobacter pylori 06-7 assessed as growth inhibition after 16 to 18 hr NCCLS agar dilution method
[13] = system: Staphylococcus aureus; experiment: Bactericidal activity against Staphylococcus aureus clinical isolate after 24 hr
[14] = system: Staphylococcus aureus; experiment: Antibacterial activity against Staphylococcus aureus clinical isolate 8 assessed as growth inhibition at pH 5 after 16 to 18 hr by NCCLS agar dilution method
[15] = system: Staphylococcus aureus; experiment: Antibacterial activity against methicillin-resistant Staphylococcus aureus isolate 3 assessed as growth inhibition after 16 to 18 hr by NCCLS agar dilution method
[16] = system: Staphylococcus aureus; experiment: Antibacterial activity against Staphylococcus aureus clinical isolate 9 assessed as growth inhibition at pH 7 after 16 to 18 hr by NCCLS agar dilution method
[17] = system: Staphylococcus aureus; experiment: Bactericidal activity against Staphylococcus aureus clinical isolate 10 after 24 hr; conditions: isolate 10, 24 h
[18] = system: Staphylococcus aureus; experiment: Antibacterial activity against Staphylococcus aureus clinical isolate 15 assessed as growth inhibition at pH 5 after 16 to 18 hr by NCCLS agar dilution method
[19] = system: Staphylococcus aureus; experiment: Bactericidal activity against Staphylococcus aureus clinical isolate 6 after 24 hr; conditions: isolate 6, 24 h
[20] = system: Escherichia coli; experiment: Antibacterial activity against Escherichia coli ATCC 25922 assessed as growth inhibition after 16 to 18 hr NCCLS agar dilution method
[21] = system: Staphylococcus aureus; experiment: Bactericidal activity against Staphylococcus aureus clinical isolate 5 after 24 hr; conditions: isolate 5, 24 h
[22] = system: Helicobacter pylori; experiment: Antibacterial activity against Helicobacter pylori 06-1 assessed as growth inhibition after 16 to 18 hr NCCLS agar dilution method
[23] = system: Staphylococcus aureus; experiment: Antibacterial activity against Staphylococcus aureus clinical isolate 7 assessed as growth inhibition at pH 5 after 16 to 18 hr by NCCLS agar dilution method
[24] = system: Staphylococcus aureus; experiment: Antibacterial activity against Staphylococcus aureus clinical isolate 19 assessed as growth inhibition at pH 5 after 16 to 18 hr by NCCLS agar dilution method
[25] = system: Staphylococcus aureus; experiment: Antibacterial activity against Staphylococcus aureus clinical isolate 3 assessed as growth inhibition after 16 to 18 hr by NCCLS agar dilution method
[26] = system: Staphylococcus aureus; experiment: Antibacterial activity against Staphylococcus aureus clinical isolate 17 assessed as growth inhibition at pH 7 after 16 to 18 hr by NCCLS agar dilution method
[27] = system: Helicobacter pylori; experiment: Antibacterial activity against Helicobacter pylori 06-8 assessed as growth inhibition after 16 to 18 hr NCCLS agar dilution method
[28] = system: Staphylococcus aureus; experiment: Bactericidal activity against methicillin-resistant Staphylococcus aureus isolate 5 after 24 hr; conditions: isolate 5, 24 h
[29] = system: Helicobacter pylori; experiment: Antibacterial activity against Helicobacter pylori 05-12 assessed as growth inhibition after 16 to 18 hr NCCLS agar dilution method
[30] = system: Staphylococcus aureus; experiment: Antibacterial activity against Staphylococcus aureus clinical isolate 8 assessed as growth inhibition after 16 to 18 hr by NCCLS agar dilution method
[31] = system: Staphylococcus aureus; experiment: Antibacterial activity against Staphylococcus aureus clinical isolate 5 assessed as growth inhibition at pH 7 after 16 to 18 hr by NCCLS agar dilution method
[32] = system: Pseudomonas aeruginosa; experiment: Antibacterial activity against Pseudomonas aeruginosa ATCC 27853 assessed as growth inhibition after 16 to 18 hr NCCLS agar dilution method
[33] = system: Staphylococcus aureus; experiment: Antibacterial activity against Staphylococcus aureus clinical isolate 12 assessed as growth inhibition at pH 5 after 16 to 18 hr by NCCLS agar dilution method
[34] = system: Staphylococcus aureus; experiment: Antibacterial activity against Staphylococcus aureus clinical isolate 7 assessed as growth inhibition after 16 to 18 hr by NCCLS agar dilution method
[35] = system: Staphylococcus aureus; experiment: Antibacterial activity against Staphylococcus aureus clinical isolate 20 assessed as growth inhibition at pH 9 after 16 to 18 hr by NCCLS agar dilution method
[36] = system: Staphylococcus aureus; experiment: Antibacterial activity against Staphylococcus aureus clinical isolate 22 assessed as growth inhibition at pH 9 after 16 to 18 hr by NCCLS agar dilution method
[37] = system: Helicobacter pylori; experiment: Antibacterial activity against Helicobacter pylori 05-9 assessed as growth inhibition after 16 to 18 hr NCCLS agar dilution method
[38] = system: Staphylococcus aureus; experiment: Antibacterial activity against Staphylococcus aureus clinical isolate 16 assessed as growth inhibition at pH 9 after 16 to 18 hr by NCCLS agar dilution method
[39] = system: Staphylococcus aureus; experiment: Antibacterial activity against Staphylococcus aureus clinical isolate 3 assessed as growth inhibition at pH 9 after 16 to 18 hr by NCCLS agar dilution method
[40] = system: Staphylococcus aureus; experiment: Antibacterial activity against Staphylococcus aureus clinical isolate 1 assessed as growth inhibition at pH 5 after 16 to 18 hr by NCCLS agar dilution method
[41] = system: Staphylococcus aureus; experiment: Antibacterial activity against Staphylococcus aureus clinical isolate 12 assessed as growth inhibition at pH 9 after 16 to 18 hr by NCCLS agar dilution method
[42] = system: Staphylococcus aureus; experiment: Antibacterial activity against Staphylococcus aureus clinical isolate 9 assessed as growth inhibition at pH 9 after 16 to 18 hr by NCCLS agar dilution method
[43] = system: Staphylococcus aureus; experiment: Antibacterial activity against Staphylococcus aureus clinical isolate 23 assessed as growth inhibition at pH 9 after 16 to 18 hr by NCCLS agar dilution method

CO/N=C/CC(=O)c1ccc(OC)cc1
MIC [1]: 8 µg/mL (≈ 38.6 µM)
MIC [2]: 8 µg/mL (≈ 38.6 µM)
MIC [3]: 16 µg/mL (≈ 77.2 µM)
MIC [4]: 8 µg/mL (≈ 38.6 µM)
MBC [5]: 256 µg/mL (≈ 1240 µM)
MIC [6]: 16 µg/mL (≈ 77.2 µM)
MIC [7]: 16 µg/mL (≈ 77.2 µM)
MIC [8]: 16 µg/mL (≈ 77.2 µM)
MIC [9]: 16 µg/mL (≈ 77.2 µM)
MIC [10]: 16 µg/mL (≈ 77.2 µM)
MIC [11]: 8 µg/mL (≈ 38.6 µM)
MIC [12]: 32 µg/mL (≈ 154 µM)
MBC50 (60.1); MBC90 (60.2) ([13]; read-out: MIC50): 64 µg/mL (≈ 309 µM)
MBC50 (60.1); MBC90 (60.2) ([13]; read-out: MIC90): 128 µg/mL (≈ 618 µM)
MIC [14]: 32 µg/mL (≈ 154 µM)
MIC [15]: 8 µg/mL (≈ 38.6 µM)
MIC [16]: 32 µg/mL (≈ 154 µM)
MBC [17]: > 128 µg/mL
MIC [18]: 16 µg/mL (≈ 77.2 µM)
MBC [19]: 64 µg/mL (≈ 309 µM)
MIC [20]: > 64 µg/mL
MBC [21]: 64 µg/mL (≈ 309 µM)
MIC [22]: 16 µg/mL (≈ 77.2 µM)
MIC [23]: 16 µg/mL (≈ 77.2 µM)
MIC [24]: 16 µg/mL (≈ 77.2 µM)
MIC [25]: 8 µg/mL (≈ 38.6 µM)
MIC [26]: 16 µg/mL (≈ 77.2 µM)
MIC [27]: 32 µg/mL (≈ 154 µM)
MBC [28]: 256 µg/mL (≈ 1240 µM)
MIC [29]: > 128 µg/mL
MIC [30]: 16 µg/mL (≈ 77.2 µM)
MIC [31]: 16 µg/mL (≈ 77.2 µM)
MIC [32]: > 64 µg/mL
MIC [33]: 16 µg/mL (≈ 77.2 µM)
MIC [34]: 8 µg/mL (≈ 38.6 µM)
MIC [35]: 8 µg/mL (≈ 38.6 µM)
MIC [36]: 8 µg/mL (≈ 38.6 µM)
MIC [37]: 64 µg/mL (≈ 309 µM)
MIC [38]: 8 µg/mL (≈ 38.6 µM)
MIC [39]: 8 µg/mL (≈ 38.6 µM)
MIC [40]: 64 µg/mL (≈ 309 µM)
MIC [41]: 8 µg/mL (≈ 38.6 µM)
MIC [42]: 8 µg/mL (≈ 38.6 µM)
MIC [43]: 8 µg/mL (≈ 38.6 µM)
